In patent US12465614B2, “Budesonide 21-phosphate salts and pharmaceutical compositions containing the same” (GENETIC S.P.A., priority 2020, dated 2025):

What was measured:
Format in all cases: in vivo
[1] = tested on: mice with OVA-induced allergic asthma; test: BAL fluid cell counts (Experimental Groups II)
Procedure: Male Balb/c SPF mice (25*2 g, 6-week-old) were purchased from the animal house facilities at the São Paulo School of Medicine (Federal University of São Paulo, Brazil). They were group-housed in a temperature-controlled room at 22° C. with a 12/12-hour light/dark cycle and allowed free access to food and water. The study is in agreement with the Ethical Principles for Animal Research established by the Brazilian College for Animal Experimentation (COBEA). According to the internal laboratory rules, euthanasia is performed if severe distress related to the test agents developed during the experiment. […] The compounds were dissolved in DMSO (Sigma Chemical Co., St. Louis, MO) at concentrations at which the determined dose per animal results from the intraperitoneal administration of 100 μl of solution (1:10 DMSO) and intra-nasal (i.n.) administration of 10 μl/animal (5 μl/nostril) of the solutions. Mice were sensitized with two subcutaneous injections of 0.4 ml of OVA/Al(OH)3, with an interval of 7 days (Sham animals received the Al(OH)3 suspension in PBS with no OVA). Seven days after the second sensitization (i.e., 3rd week), the animals were nebulized twice a week with the 1% OVA solution (Sham and untreated OVA groups were nebulized with PBS) during 20 minutes for the next 2 weeks. Sixty minutes before the challenges (OVA nebulization) and daily during the next 4 weeks, mice were intra-nasally treated (10 μl/animal as 5 μl/nostril) with the respective compounds/vehicle. After Penh evaluation, the mice were anesthetized with inhaled isofluorane (5% v/v in O2) and blood samples were collected from the descending abdominal aorta. The mice were then euthanized by exsanguination (blood samples were collected from each animal for leukocyte cell counting), and bronchoalveolar lavage (BAL) was performed by exposing and cannulating the trachea with a polyethylene tube (1 mm outer diameter) connected to a syringe. The lungs were washed by flushing 300 μL of heparin-containing PBS solution (20 Ul/mL). The retrieved BAL lavage aliquots were obtained, and the same procedure was repeated four additional times. The samples were submitted to centrifugation (1000 g for 10 min) and the cell pellet was resuspended in 200 μL of PBS solution. Total cell counts were determined using a Neubauer chamber, and differential counting was carried out in cytospin (Fanem Mod 2400; São Paulo, Brazil) preparations stained with May-Grünwald dye. Leukocytes were classified based on normal morphological criteria.

[2] = tested on: IgE; test: Plasma IgE levels in OVA-sensitized mice, ELISA (Experimental Groups I); conditions: 1 mg/Kg i.p.; vs OVA group; FIG. 10 panel C
Procedure: Female Balb/c (8-week-old, Charles River, Calco, Italy) were housed in the animal care facility of the Department of Pharmacy of the University of Naples, Italy in a controlled environment (temperature 21±2° C. and humidity 60±10%) and provided with standard rodent chow and water. All animals were allowed to acclimate for four days prior to experiments and were subjected to 12 h light−12 h dark schedule. Experiments were conducted during the light phase. The experimental procedures were approved by the Italian Ministry according to International and National law and policies (EU Directive 2010/63/EU and Italian DL 26/2014 for animal experiments). […] The compounds were dissolved in DMSO (Sigma Chemical Co., St. Louis, MO) at concentrations at which the determined dose per animal results from the intraperitoneal administration of 100 μl of solution (1:10 DMSO) and intra-nasal (i.n.) administration of 10 μl/animal (5 μl/nostril) of the solutions. […] Plasma levels of IgE were measured as index of sensitization. […] Total IgE levels were measured by means of ELISA using matched antibody pairs (BD Biosciences Pharmingen San Jose, CA).

[3] = tested on: OVA-sensitized mice; test: Bronchial relaxation to salbutamol, isolated bronchi of OVA-sensitized mice (Experimental Groups I); conditions: 1 mg/Kg i.p.; rings precontracted with carbachol; vs OVA group; FIG. 10B

CCCC1OC2CC3C4CCC5=CC(=O)C=CC5(C)C4C(O)CC3(C)C2(C(=O)COP(=O)(O)O)O1 (centres unmarked) [B, Budesonide 21-phosphate]
OVA-induced increase of BAL macrophages ([1]; 3 nmol/animal i.n.): abolished the OVA-induced increase of BAL macrophages | total leukocytes in BAL fluid ([1]; 3 nmol/animal i.n., vs untreated OVA group): significantly reduced | eosinophils in BAL samples ([1]; i.n., all treatments: FB 0.3, 1.0, 3.0 nmol/animal, F and B 3.0 nmol/animal): significantly controlled | OVA induced increase of IgE plasma levels [2]: significantly reduced OVA induced increase of IgE plasma levels | bronchial relaxation to salbutamol [3]: did not ameliorate the lack of bronchial response to salbutamol
